Test results from PubChem BioAssay AID2060602 (Molecular Pharmacology Branch, DTP, NCI, 2025).
pIC50: −log10 of the molar value. Values joined by “and” are separate entries in the source; they are usually repeats but may differ in a detail not shown here. Equal entries are not always repeated. One block for each compound: values may come before it.

Test system: 648629-189-R-J1-PDC complex spheroids viability
Assay: Anticancer human tumor 648629-189-R-J1-PDC patient-derived bladder carcinoma cell line growth inhibition [CLK]
Conditions: for viability, T/C: stronger effect = lower value
Outline: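 Patient-derived tumor cells grown as complex spheroids with HUVEC endothelial cells and mesenchymal stem cells, treated with drug combinations. Concentrations descend in half-log steps from near clinical Cmax, or from 10 microM if Cmax unknown.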

[1] = curve of first compound, second compound 0.0316 µM
[2] = curve of first compound, second compound 0.1 µM
[3] = curve of first compound, second compound 0.316 µM
[4] = curve of first compound, second compound 1 µM
[5] = curve of first compound, second compound 3.16 µM
[6] = curve of first compound, second compound 10 µM
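Wherever viability, T/C is given: drug exposure lasted seven days before viability readout; 100% = DMSO vehicle control wells.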

pIC50 [1]: 7.28
pIC50 [2]: 7.35
pIC50 [3]: > 8.02
pIC50 [4]: > 8.02
pIC50 [5]: > 8.02
pIC50 [6]: > 8.02
SMILES: NC(=O)C(=Cn1cnc(-c2cc(C(F)(F)F)cc(C(F)(F)F)c2)n1)c1cncnc1 + CNC(=O)c1ccc(Nc2nc(OC3CCCC3)c3c(-c4ccc5nc(C)oc5c4)c[nH]c3n2)c(OC)c1
viability, T/C (second compound 0.0316 µM, first compound 0.00949 µM): 99%
viability, T/C (second compound 0.0316 µM, first compound 0.03 µM): 83.4%
viability, T/C (second compound 0.0316 µM, first compound 0.0949 µM): 13.9%
viability, T/C (second compound 0.0316 µM, first compound 0.3 µM): 5.54%
viability, T/C (second compound 0.0316 µM, first compound 0.949 µM): 2.71%
viability, T/C (second compound 0.0316 µM, first compound 3 µM): 2.7%
viability, T/C (second compound 0.1 µM, first compound 0.00949 µM): 94.1%
viability, T/C (second compound 0.1 µM, first compound 0.03 µM): 68.2%
viability, T/C (second compound 0.1 µM, first compound 0.0949 µM): 14.8%
viability, T/C (second compound 0.1 µM, first compound 0.3 µM): 4.73%
viability, T/C (second compound 0.1 µM, first compound 0.949 µM): 2.15%
viability, T/C (second compound 0.1 µM, first compound 3 µM): 2.48%
viability, T/C (second compound 0.316 µM, first compound 0.00949 µM): 22.4%
viability, T/C (second compound 0.316 µM, first compound 0.03 µM): 17.4%
viability, T/C (second compound 0.316 µM, first compound 0.0949 µM): 7.71%
viability, T/C (second compound 0.316 µM, first compound 0.3 µM): 2.5%
viability, T/C (second compound 0.316 µM, first compound 0.949 µM): 1.35%
viability, T/C (second compound 0.316 µM, first compound 3 µM): 2.05%
viability, T/C (second compound 1 µM, first compound 0.00949 µM): 18.1%
viability, T/C (second compound 1 µM, first compound 0.03 µM): 11.5%
viability, T/C (second compound 1 µM, first compound 0.0949 µM): 4.85%
viability, T/C (second compound 1 µM, first compound 0.3 µM): 1.29%
viability, T/C (second compound 1 µM, first compound 0.949 µM): 0.91%
viability, T/C (second compound 1 µM, first compound 3 µM): 0.42%
viability, T/C (second compound 3.16 µM, first compound 0.00949 µM): 14.7%
viability, T/C (second compound 3.16 µM, first compound 0.03 µM): 11.7%
viability, T/C (second compound 3.16 µM, first compound 0.0949 µM): 5.56%
viability, T/C (second compound 3.16 µM, first compound 0.3 µM): 1.15%
viability, T/C (second compound 3.16 µM, first compound 0.949 µM): 1.87%
viability, T/C (second compound 3.16 µM, first compound 3 µM): 1.75%
viability, T/C (second compound 10 µM, first compound 0.00949 µM): 15.4%
viability, T/C (second compound 10 µM, first compound 0.03 µM): 8.85%
viability, T/C (second compound 10 µM, first compound 0.0949 µM): 5.59%
viability, T/C (second compound 10 µM, first compound 0.3 µM): 1.56%
viability, T/C (second compound 10 µM, first compound 0.949 µM): 1.79%
viability, T/C (second compound 10 µM, first compound 3 µM): 0.33%

pIC50 (curve of compound): > 8.50
SMILES: CCc1c2c(nc3ccc(O)cc13)-c1cc3c(c(=O)n1C2)COC(=O)[C@]3(O)CC
viability, T/C (compound 0.00316 µM): 43.1% and 28.1%
viability, T/C (compound 0.01 µM): 17.6% and 10.2%
viability, T/C (compound 0.0316 µM): 6.99% and 10.1%
viability, T/C (compound 0.1 µM): 5.22% and 6.99%
viability, T/C (compound 0.316 µM): 4.52% and 6.06%
viability, T/C (compound 1 µM): 3.5% and 4.41%

SMILES: O=C(c1cc(Cc2n[nH]c(=O)c3ccccc23)ccc1F)N1CCN(C(=O)C2CC2)CC1 + CN1CCN(c2cc(C(=O)Nc3cc4cc(-c5cnn(C)c5)ccc4cn3)ccn2)CC1
pIC50 [1]: < 5.00
pIC50 [2]: < 5.00
pIC50 [3]: > 7.50
pIC50 [4]: > 7.50
pIC50 [5]: > 7.50
pIC50 [6]: > 7.50
viability, T/C (second compound 0.0316 µM, first compound 0.0316 µM): 105%
viability, T/C (second compound 0.0316 µM, first compound 0.1 µM): 106%
viability, T/C (second compound 0.0316 µM, first compound 0.316 µM): 104%
viability, T/C (second compound 0.0316 µM, first compound 1 µM): 100%
viability, T/C (second compound 0.0316 µM, first compound 3.16 µM): 86.5%
viability, T/C (second compound 0.0316 µM, first compound 10 µM): 72.1%
viability, T/C (second compound 0.1 µM, first compound 0.0316 µM): 115%
viability, T/C (second compound 0.1 µM, first compound 0.1 µM): 111%
viability, T/C (second compound 0.1 µM, first compound 0.316 µM): 110%
viability, T/C (second compound 0.1 µM, first compound 1 µM): 98%
viability, T/C (second compound 0.1 µM, first compound 3.16 µM): 84.4%
viability, T/C (second compound 0.1 µM, first compound 10 µM): 68.2%
viability, T/C (second compound 0.316 µM, first compound 0.0316 µM): 37.2%
viability, T/C (second compound 0.316 µM, first compound 0.1 µM): 39.2%
viability, T/C (second compound 0.316 µM, first compound 0.316 µM): 43.6%
viability, T/C (second compound 0.316 µM, first compound 1 µM): 46%
viability, T/C (second compound 0.316 µM, first compound 3.16 µM): 42%
viability, T/C (second compound 0.316 µM, first compound 10 µM): 32.6%
viability, T/C (second compound 1 µM, first compound 0.0316 µM): 0.41%
viability, T/C (second compound 1 µM, first compound 0.1 µM): 0.25%
viability, T/C (second compound 1 µM, first compound 0.316 µM): 0.62%
viability, T/C (second compound 1 µM, first compound 1 µM): 0.21%
viability, T/C (second compound 1 µM, first compound 3.16 µM): 0.92%
viability, T/C (second compound 1 µM, first compound 10 µM): 1.08%
viability, T/C (second compound 3.16 µM, first compound 0.0316 µM): 0.08%
viability, T/C (second compound 3.16 µM, first compound 0.1 µM): 0.44%
viability, T/C (second compound 3.16 µM, first compound 0.316 µM): 0.12%
viability, T/C (second compound 3.16 µM, first compound 1 µM): 0.15%
viability, T/C (second compound 3.16 µM, first compound 3.16 µM): 0.79%
viability, T/C (second compound 3.16 µM, first compound 10 µM): 0.38%
viability, T/C (second compound 10 µM, first compound 0.0316 µM): 0.08%
viability, T/C (second compound 10 µM, first compound 0.1 µM): 0.14%
viability, T/C (second compound 10 µM, first compound 0.316 µM): 0.72%
viability, T/C (second compound 10 µM, first compound 1 µM): 0.15%
viability, T/C (second compound 10 µM, first compound 3.16 µM): 0.23%
viability, T/C (second compound 10 µM, first compound 10 µM): 0.5%
